Experimental findings from PubChem BioAssay (NCI) are described below.

Test systems include SK-MEL-2 melanoma; EKVX NSCLC; OVCAR-8 ovarian; SK-MEL-5 melanoma; SNB-19 CNS; OVCAR-4 ovarian; OVCAR-5 ovarian; K-562 leukemia; KM12 colon; HT29 colon.
What all share (assay): inhibition of tumour cell growth, NCI panel, 48 h

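These data come from cells grown in 96-well plates and exposed to compound for 48 hours at five concentrations. GI50: concentration for 50% inhibition of growth. TGI: concentration producing complete growth inhibition.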

As to `COc1cc2c(cc1O)N=C[C@@H]1CCC(O)N1C2=O` (mixture of isomers), the TGI in the test with SK-MEL-2 melanoma worked out at 0.748 µM; in the test on EKVX NSCLC, 5.99 µM; with OVCAR-8 ovarian, 10 µM; in the test on SK-MEL-5 melanoma it was 1.83 µM; in the test on SNB-19 CNS, 147 µM; in the test with OVCAR-4 ovarian it was 18 µM. In addition, the TGI turned out to be 18.8 µM with OVCAR-5 ovarian, 24.2 µM in the test with K-562 leukemia, 17.9 µM in the test on KM12 colon and 72.9 µM in the test with HT29 colon.

Turning to `O=C1NC(=O)C2(CCc3ccc(N(CCCl)CCCl)cc32)N1` (stereo not given), the TGI in the test on SK-MEL-2 melanoma was 43.4 µM; with EKVX NSCLC, 16.4 µM; with OVCAR-8 ovarian it was 36.2 µM; in the test with SK-MEL-5 melanoma, 26.6 µM; in the test with SNB-19 CNS, over 84.7 µM; in the test with OVCAR-4 ovarian it was 41.4 µM. Moreover, the TGI in the test with OVCAR-5 ovarian is 50.2 µM; with K-562 leukemia, over 100 µM; with KM12 colon, over 84.1 µM; with HT29 colon it was 59.3 µM.

As for `COc1ccc2oc3c(ccc[n+]3C)c(=O)c2c1`, the TGI in the test on SK-MEL-2 melanoma, in the test on EKVX NSCLC, in the test on OVCAR-8 ovarian, in the test on SK-MEL-5 melanoma, in the test on SNB-19 CNS and in the test on OVCAR-4 ovarian was over 100 µM in each case. Moreover, the TGI in the test on OVCAR-5 ovarian, with K-562 leukemia, in the test with KM12 colon and in the test on HT29 colon was over 100 µM each time.

Turning to `COc1ccc(-c2c(C#N)cnc(N)c2-c2nc3cc(C)c(C)cc3[nH]2)cc1`, the GI50 in the test on SK-MEL-2 melanoma is 10.8 µM; in the test with EKVX NSCLC, 15.8 µM; with OVCAR-8 ovarian, 5.2 µM; in the test on SK-MEL-5 melanoma it was 8.78 µM; in the test with SNB-19 CNS it was 7.06 µM; in the test on OVCAR-4 ovarian it was 22.5 µM. The GI50 was 52.4 µM in the test with OVCAR-5 ovarian, 6.03 µM in the test on K-562 leukemia, 3.47 µM in the test with KM12 colon and 4.79 µM in the test on HT29 colon. In addition, the TGI was 98 µM in the test on SK-MEL-2 melanoma; over 100 µM in the test on EKVX NSCLC; 26.8 µM in the test on OVCAR-8 ovarian; over 100 µM in the test on SK-MEL-5 melanoma; 57.1 µM with SNB-19 CNS; over 100 µM in the test on OVCAR-4 ovarian. For the same molecule, the TGI with OVCAR-5 ovarian, in the test on K-562 leukemia, in the test on KM12 colon and in the test on HT29 colon was over 100 µM throughout.

Take `CCc1ncc(C(C)(O)c2ccccc2)n1Cc1ccccc1` (stereo not given): the TGI in the test with SK-MEL-2 melanoma was over 100 µM; with EKVX NSCLC, over 100 µM; with OVCAR-8 ovarian it was over 100 µM; in the test on SK-MEL-5 melanoma, 40.6 µM; in the test with SNB-19 CNS, over 100 µM; in the test with OVCAR-4 ovarian, over 100 µM. Moreover, the TGI in the test with OVCAR-5 ovarian, in the test with K-562 leukemia, in the test with KM12 colon and in the test on HT29 colon was over 100 µM throughout.

Regarding `C/C=C1/C(=O)O[C@]23C=C[C@@H]4C(C(=O)OC)=CO[C@H](O[C@@H]12)[C@@H]43`, the TGI was 3.76 µM with SK-MEL-2 melanoma; 3.64 µM with EKVX NSCLC; 11.4 µM with OVCAR-8 ovarian; 4.2 µM in the test on SK-MEL-5 melanoma; 10.3 µM with SNB-19 CNS; 2.98 µM in the test on OVCAR-4 ovarian. Further, the TGI came to 7.69 µM in the test on OVCAR-5 ovarian, 7.93 µM in the test with K-562 leukemia, 6.12 µM in the test on KM12 colon and 9.06 µM in the test on HT29 colon.

`CC(=O)O[C@@H]1CN(S(=O)(=O)c2ccc(C)cc2)C[C@@H]1C1CCCCC1`: the TGI with SK-MEL-2 melanoma is 32.2 µM; in the test with EKVX NSCLC, 58.6 µM; with OVCAR-8 ovarian, 69.6 µM; in the test on SK-MEL-5 melanoma, 45.8 µM; in the test on SNB-19 CNS, over 100 µM; in the test on OVCAR-4 ovarian, over 100 µM. The TGI in the test with OVCAR-5 ovarian was over 100 µM; in the test on K-562 leukemia, over 100 µM; in the test on KM12 colon it was 29.8 µM; with HT29 colon, 74 µM.

Regarding `COc1ccc(/C=C/C(=O)/C=C(/C=C/c2ccc(OC)c(OC)c2OC)OB(F)F)c(OC)c1OC`, the GI50 in the test on SK-MEL-2 melanoma is 2.36 µM; in the test on EKVX NSCLC, 2.96 µM; in the test with OVCAR-8 ovarian, 1.16 µM; in the test with SK-MEL-5 melanoma it was 1.77 µM; in the test on SNB-19 CNS, 2.35 µM; in the test with OVCAR-4 ovarian, 5.09 µM. The GI50 is 3.3 µM with OVCAR-5 ovarian, 1.28 µM in the test on K-562 leukemia and 2.09 µM with KM12 colon. The TGI is 8.09 µM in the test with SK-MEL-2 melanoma; over 100 µM with EKVX NSCLC; over 100 µM in the test with OVCAR-8 ovarian; 3.91 µM in the test with SK-MEL-5 melanoma; over 100 µM in the test with SNB-19 CNS; over 100 µM with OVCAR-4 ovarian. The figures for the TGI with OVCAR-5 ovarian, in the test on K-562 leukemia and in the test on KM12 colon were over 100 µM, over 100 µM and 5.08 µM, respectively.

`CC(CNc1nc(Nc2ccc(Cl)c(Cl)c2)nc(C(Cl)(Cl)Cl)n1)N(C)C` (stereo not given): the GI50 in the test on EKVX NSCLC was 1.99 µM; with SK-MEL-5 melanoma, 1.63 µM; in the test with SNB-19 CNS, 1.71 µM; in the test on OVCAR-5 ovarian it was 1.61 µM; with KM12 colon, 1.7 µM; in the test with HT29 colon, 1.66 µM. Besides, the TGI amounted to 4.62 µM in the test with EKVX NSCLC; 2.98 µM with SK-MEL-5 melanoma; 3.18 µM in the test with SNB-19 CNS; 3.2 µM in the test on OVCAR-5 ovarian; 3.14 µM in the test on KM12 colon; 3.11 µM in the test on HT29 colon.

For `Nc1ccc2c(c1)S(=O)(=O)c1cc(N)ccc1-2`, the TGI in the test on SK-MEL-2 melanoma, with EKVX NSCLC, in the test with OVCAR-8 ovarian, in the test on SK-MEL-5 melanoma, in the test with SNB-19 CNS and with OVCAR-4 ovarian was over 100 µM each time. For the same molecule, the TGI with OVCAR-5 ovarian, in the test with K-562 leukemia, with KM12 colon and in the test on HT29 colon was over 100 µM throughout.

Take `O=c1ccc2nc3ccc(O)cc3oc-2c1`: the TGI with SK-MEL-2 melanoma is 57.7 µM; with EKVX NSCLC, over 100 µM; in the test on OVCAR-8 ovarian, over 100 µM; in the test with SK-MEL-5 melanoma, 2.95 µM; with SNB-19 CNS it was over 100 µM; with OVCAR-4 ovarian it was over 100 µM. For the same molecule, the TGI is over 100 µM with OVCAR-5 ovarian, 34.7 µM with K-562 leukemia, over 62.7 µM with KM12 colon and over 75.9 µM with HT29 colon.

Turning to `CC(=O)Nc1nc(C)c(-c2cc3c(c(S(C)(=O)=O)c2)C(=O)N([C@@H](C)C2CC2)C3)s1`, the GI50 with SK-MEL-2 melanoma is 21.9 µM; with EKVX NSCLC, 18.3 µM; with OVCAR-8 ovarian, 39.4 µM; with SK-MEL-5 melanoma, 18.8 µM; with SNB-19 CNS, 65.5 µM; with OVCAR-4 ovarian, 29.2 µM. In addition, the GI50 was 29.9 µM in the test on OVCAR-5 ovarian, 34.2 µM in the test with K-562 leukemia, 85 µM with KM12 colon and 31 µM with HT29 colon. For the same molecule, the TGI was 67.7 µM in the test on SK-MEL-2 melanoma; 79.9 µM in the test with EKVX NSCLC; over 100 µM in the test on OVCAR-8 ovarian; 39.7 µM with SK-MEL-5 melanoma; over 100 µM with SNB-19 CNS; over 100 µM in the test on OVCAR-4 ovarian. The TGI with OVCAR-5 ovarian, in the test on K-562 leukemia, in the test with KM12 colon and in the test with HT29 colon was over 100 µM each time.

As to `Cc1ccc(C(=O)N/N=C(\N=Nc2ccccc2)c2ccc(N(CCC#N)CCC#N)cc2C)cc1`, the TGI in the test with SK-MEL-2 melanoma, with EKVX NSCLC, in the test on OVCAR-8 ovarian, in the test on SK-MEL-5 melanoma, in the test with SNB-19 CNS and with OVCAR-4 ovarian was over 100 µM in each case. For the same molecule, the TGI in the test on OVCAR-5 ovarian, in the test with K-562 leukemia, in the test on KM12 colon and in the test with HT29 colon was over 100 µM each time.
